Assay results published in patent publication US4094908A, “Alpha-substituted benzhydrol derivatives” (Richter Gedeon Vegyeszeti Gyar Rt., priority 1973, dated 1978).

Assays:
[1] = system: liver microsomal enzyme system; assay: Promotion or inhibition of the liver microsomal enzyme system; format: in vivo; conditions: in words
Description: Tests per the methods described herein have shown compounds to be either effective in the promotion or inhibition of the liver microsomal enzyme system as follows: […]

[2] = system: hexobarbital oxidase; assay: Enzyme inhibiting ability in vivo: change of hexobarbital oxidase activity (hexobarbital narcosis period); parameters: species or system Female Wistar rats; conditions: in words, even 48 hours after administration
Description: (§1) Female Wistar rats, each weighing 80 to 100 g., were treated orally with a single 0.3 mM/kg. dosage of the active agent. 24 and 48 hours after the administration of the active agent, respectively, the animals were narcotized with 40 mg./kg. i.v. dosage of hexobarbital sodium, and the time elapsed until complete wakening was measured (Noordhock, J.: Eur. J. Pharmacol. 3, 242, 1968). The data were recorded, and the mean values, the standard errors, as well as the percentage increase with respect to the controls were calculated for each group. […] The hexobarbital concentration of the plasma, measured on the instant of wakening, was the same for both the treated and the control animals, thus the increase of narcosis period was not due to a certain central nervous interaction (Jori, A., Bianchatti, A., Presentini, P. E.: Biochem. Pharmacol. 19, 2687, 1970).

[3] = system: hexobarbital oxidase; assay: Enzyme-inducing potency: in vivo hexobarbital oxidase activity (duration of hexobarbital narcosis); parameters: species or system Female Wistar rats; conditions: 24 hours before hexobarbital
Description: as §1, with “Female Wistar rats, each weighing 80 to 100 g., were treated orally with a single 0.3 mM/kg. dosage of the active agent.” left out
The enzyme-inducing potency of the new compounds was determined by several methods. One of these methods was the in vivo measurement of hexobarbital oxidase activity.
The decrease of narcosis period is due to the fact that the new compounds according to the invention accelerate the elimination of hexobarbital, a foreign substance, from the body. When administering the compound to be tested in a single dosage and measuring the duration of hexobarbital narcosis 24 hours after the administration, the following results are obtained: […]

[4] = system: liver microsomal enzyme system; assay: Biological halving period of hexobarbital and hexobarbital concentration at wakening; format: in vivo; conditions: pre-treated 24 hours prior to hexobarbital; female rats 150 g
[5] = system: meprobamate elimination; assay: Biological halving period of meprobamate after pre-treatment; format: in vivo; conditions: 24 hours after pre-treatment
Description: The biological halving period of meprobamate was determined 24 hours after pre-treatment with the compounds of the formula (I) (Ludwig, B. J., Hoffman, A. J.; Arch. Biochem. 72, 234, 1957).

[6] = system: bromosulfophthalein elimination; assay: Bromosulfophthalein (BSP) concentration of the plasm after pre-treatment; format: in vivo; conditions: 24 hours after pre-treatment; after i.v. bromsulfophthaleine
Description: The bromosulfophthalein (BSP) concentration of the plasm was determined 24 hours after pre-treatment with the compounds of the formula (I) and after the intravenous administration of bromsulfophthaleine, respectively (Varga, F., Fisher, E.: Acta Physiol. Hung. 36, 431, 1969).

[7] = system: UDP-glucoronyltransferase; assay: UDP-glucuronyltransferase activity of liver tissues removed from pre-treated animals (bilirubin conjugation); format: in vivo; conditions: liver tissues of pre-treated animals incubated with bilirubin
Description: In an in vivo test, liver tissues removed from animals pre-treated with compounds of the formula (I) were incubated in the presence of bilirubin, in order to determine the UDP-glucoronyltransferase activity of the liver tissues (Adlard, B. P. F., Lester, R. G., Lathe, G. H.: Biochem Pharmacol. 18, 59, 1969).

[8] = Toxicity: perished animals/tested animals; format: in vivo
Description: Despite its disadvantageous properties, phenobarbital is widely used in the treatment of neonatal jaundice. In order to enable a better comparison, Table 8 indicates the respective dosages in which phenobarbital causes lethal respiration paralysis, while the compounds according to the invention are completely innocuous.

[9] = system: central nervous system; format: in vivo, mice and rats; conditions: in words; in contrast with phenobarbital
Description: The central nervous activities of the compounds according to the invention were examined on mice and rats with the following methods: electroshock (Swinyard, E. A., Brown, W. C., Goodman, L. S.: J. Pharmacol. Exp. Ther. 106, 319, 1952), metrazol spasm (Everett, G. M., Richards, R. K.: J. Pharmacol. Exp. Ther. 81, 402: 1944), thiosemicarbezide spasm (Da Venzo, J. P. Greig, M. E., Cormin, M. A.: Amer. J. Physiol. 201, 833: 1961), strychnine spasm (Kerley, T. L., Richards, A. G., Begley, R. W., Abreu, B. B. Wesver, L. C.: J. Pharmacol. Exp. Ther. 132, 360: 1961), nicotine spasm (Stone, C. A., Mecklenburg, K. L., Torhans, M. L.: Arch. Int. Pharmacodyn. 117, 419: 1958), rotarod test (Kinnard, W. C., Carr, C. J.: J. Pharmacol. Expt. Ther. 121, 3, 54: 1957), physistigmine lethality preventing effect (Nose, T., Kojima, M.: Europ. J. Pharmacol. 10, 83: 1970), yohimbine potentiation effect (Quinton, R. M.: Brit. J. Pharmacol. 21, 51: 1963), and analgesic activity (Bianchi, G., Franceschini, J.: Brit. J. Pharm. Chemother. 9, 280: 1954). As reference substance, phenobarbital was used. […]

| SMILES | Potency among the enzyme inducing or inhibiting compounds [1] | Inhibition of the microsomal enzyme / xenobiotic elimination, duration [2] | Sleeping period ± standard error ([3]; 5 mg./kg. single dosage) | Sleeping period ± standard error ([3]; 10 mg./kg. single dosage) | Sleeping period ± standard error ([3]; 40 mg./kg. single dosage) | Conjugated bilirubine [7] [µg/g/h] | Central nervous effects [9] | Effect on the liver microsomal enzyme system (inducing or inhibiting) [1] | Duration and strength of inducing effect compared with phenobarbital [1] | other results |
| --- | --- | --- | --- | --- | --- | --- | --- | --- | --- | --- |
| C=CC(O)(c1ccccc1)c1ccc(Cl)c(Cl)c1 (stereo not drawn) [3,4-dichloro-α-vinylbenzhydrol, 3,4-dichloro-α-vinyl-benzhydrol] | particularly potent | – | – | – | – | – | – | – | – | – |
| C=CC(O)(c1ccccc1)c1ccc(OC)cc1OC (stereo not drawn) [2,4-dimethoxy-α-vinylbenzhydrol, 2,4-dimethoxy-α-vinyl-benzhydrol] | particularly potent | long-lasting inhibition, the degree of which remains significant even 48 hours after administration | – | – | – | – | – | – | – | – |
| CCC(O)(c1ccccc1)c1ccc(Cl)cc1Cl (stereo not drawn) [E 11, 2,4-dichloro-α-ethyl-benzhydrol] | – | – | 22.0 ± 2.1 | 16.4 ± 1.6 | 13.0 ± 1.2 | 35.7 ± 2.8 | no central nervous effects | particularly advantageous inducing effect | reaches that of phenobarbital | Sleeping period ± standard error ([3]; 20 mg./kg. single dosage): 15.0 ± 1.4; t1/2 (biological halving period of hexobarbital) [4]: 26 min.; t1/2 (biological halving period of meprobamate) [5]: 2.8 hours; BSP concentration of the plasm [6]: 5.4 μg./mg. plasm; Perished animals/tested animals ([8]; 40 mg./kg): 0/10; Perished animals/tested animals ([8]; 80 mg./kg): 0/10; Perished animals/tested animals ([8]; 160 mg./kg): 0/10; Perished animals/tested animals ([8]; 320 mg./kg): 0/10; Perished animals/tested animals ([8]; 640 mg./kg): 0/10 |
| C=CC(O)(c1ccccc1)c1ccccc1F (stereo not drawn) [2-fluoro-α-vinyl-benzhydrol, 2-Fluoro-α-vinyl-benzhydrol] | – | – | – | – | – | – | no central nervous effects | particularly advantageous inducing effect | reaches that of phenobarbital | – |
| CCC(O)(c1ccccc1)c1cc(C)ccc1C (stereo not drawn) [E 20, 2,5-dimethyl-α-ethyl-benzhydrol] | particularly potent | – | 23.8 ± 1.9 | 18.76 ± 1.9 | 13.0 ± 1.2 | 35.1 ± 2.6 | no central nervous effects | particularly advantageous inducing effect | reaches that of phenobarbital | – |
| CCC(O)(c1ccccc1)c1ccccc1OC (stereo not drawn) [E 16, 2-methoxy-α-ethyl-benzhydrol] | particularly potent | inhibit the elimination of xenobiotic agents and the inactivation thereof in the liver for a long time | – | – | – | – | – | – | – | Inhibition of the microsomal enzyme / xenobiotic elimination, duration ([2]; listed as 2-methoxy-α-ethylbenzhydrol): long-lasting inhibition, the degree of which remains significant even 48 hours after administration |
| CCN(CC)CCOc1ccc(C(O)(CC)c2ccccc2)cc1 (stereo not drawn) [E 17, 4-(β-diethylaminoethoxy)-α-ethyl-benzhydrol] | particularly potent | inhibit the elimination of xenobiotic agents and the inactivation thereof in the liver for a long time | – | – | – | – | – | – | – | Inhibition of the microsomal enzyme / xenobiotic elimination, duration ([2]; listed as 4-(β-diethylaminoethoxy)-α-ethyl-benzhydrol): long-lasting inhibition, the degree of which remains significant even 48 hours after administration |
| CCC(O)(c1ccccc1)c1cccc(Cl)c1 (stereo not drawn) [E 9, 3-chloro-α-ethyl-benzhydrol] | – | – | 21.7 ± 2.0 | 15.2 ± 1.4 | 12.4 ± 1.2 | 36.7 ± 3.2 | no central nervous effects | particularly advantageous inducing effect | reaches that of phenobarbital | Sleeping period ± standard error ([3]; 20 mg./kg. single dosage): 13.6 ± 1.4; BSP concentration of the plasm [6]: 7.6 μg./mg. plasm; Perished animals/tested animals ([8]; 40 mg./kg): 0/10; Perished animals/tested animals ([8]; 80 mg./kg): 0/10; Perished animals/tested animals ([8]; 160 mg./kg): 0/10; Perished animals/tested animals ([8]; 320 mg./kg): 0/10; Perished animals/tested animals ([8]; 640 mg./kg): 0/10 |
